Numbers after ± are expanded uncertainties.
Assay: molar heat capacity at constant pressure
Conditions: 101.33 kPa, Crystal, Small (less than 1 g) adiabatic calorimetry

Nc1nc2ncc(CNc3ccc(C(=O)N[C@@H](CCC(=O)O)C(=O)O)cc3)nc2c(=O)[nH]1.O.O [folic acid dihydrate]
Conditions	molar heat capacity at constant pressure [J/K/mol]
4 K	0.102 ± 0.017
5 K	0.2491 ± 0.021
6 K	0.5453 ± 0.031
6.19 K	0.593 ± 0.033
6.38 K	0.655 ± 0.036
6.61 K	0.721 ± 0.038
6.75 K	0.802 ± 0.041
6.92 K	0.887 ± 0.045
7 K	0.912 ± 0.045
7.08 K	0.945 ± 0.047
7.25 K	1.04 ± 0.051
7.41 K	1.13 ± 0.055
7.57 K	1.252 ± 0.06
7.74 K	1.385 ± 0.065
7.91 K	1.525 ± 0.071
8 K	1.566 ± 0.072
8.09 K	1.638 ± 0.076
8.26 K	1.768 ± 0.081
8.44 K	1.945 ± 0.088
8.62 K	2.088 ± 0.094
8.81 K	2.306 ± 0.1
8.99 K	2.516 ± 0.11
9 K	2.515 ± 0.11
9.18 K	2.748 ± 0.12
9.37 K	2.964 ± 0.13
9.57 K	3.161 ± 0.14
9.76 K	3.423 ± 0.15
9.96 K	3.738 ± 0.16
10 K	3.778 ± 0.16
10.25 K	4.166 ± 0.18
10.62 K	4.708 ± 0.2
10.99 K	5.254 ± 0.22
11.38 K	5.862 ± 0.25
11.76 K	6.483 ± 0.27
12.15 K	7.179 ± 0.3
12.54 K	7.815 ± 0.33
12.94 K	8.333 ± 0.35
13.34 K	8.928 ± 0.37
13.74 K	9.587 ± 0.4
14.14 K	10.14 ± 0.42
14.55 K	10.74 ± 0.45
14.95 K	11.46 ± 0.48
15 K	11.59 ± 0.48
15.36 K	12.2 ± 0.51
15.77 K	12.88 ± 0.54
16.17 K	13.8 ± 0.57
16.58 K	14.68 ± 0.61
16.99 K	15.55 ± 0.64
17.41 K	16.41 ± 0.68
17.82 K	17.5 ± 0.72
18.23 K	18.49 ± 0.76
18.65 K	19.48 ± 0.8
19.07 K	20.54 ± 0.85
19.48 K	21.69 ± 0.89
19.9 K	23.01 ± 0.95
20 K	23.04 ± 0.95
20.65 K	24.46 ± 0.33
21.68 K	27.43 ± 0.37
22.72 K	30.51 ± 0.4
23.77 K	33.53 ± 0.43
24.84 K	36.78 ± 0.46
25 K	37.08 ± 0.47
25.91 K	40.14 ± 0.5
26.99 K	43.46 ± 0.53
28.09 K	47.02 ± 0.56
29.19 K	50.59 ± 0.6
30 K	53.06 ± 0.59
30.31 K	54.03 ± 0.6
31.67 K	58.43 ± 0.65
32.99 K	62.72 ± 0.7
34.13 K	66.37 ± 0.73
35 K	68.97 ± 0.76
35.27 K	70.06 ± 0.77
36.42 K	73.12 ± 0.8
37.58 K	77.03 ± 0.85
38.73 K	80.18 ± 0.88
39.9 K	83.86 ± 0.92
40 K	84.24 ± 0.92
41.07 K	87.28 ± 0.52
42.25 K	90.77 ± 0.54
43.42 K	94.06 ± 0.55
44.6 K	97.24 ± 0.57
45 K	98.58 ± 0.58
45.79 K	100.6 ± 0.6
46.98 K	104.2 ± 0.6
48.17 K	107.5 ± 0.6
49.36 K	110.7 ± 0.6
50 K	112.2 ± 0.7
50.59 K	113.9 ± 0.7
51.85 K	117.3 ± 0.7
53.22 K	120.9 ± 0.7
54.67 K	124.8 ± 0.7
55.88 K	127.9 ± 0.7
57.09 K	131 ± 0.8
58.3 K	134.2 ± 0.8
59.51 K	137.3 ± 0.8
60 K	138.8 ± 0.8
60.73 K	140.4 ± 0.8
61.94 K	143.5 ± 0.8
63.16 K	146.9 ± 0.8
64.38 K	150.7 ± 0.9
65.6 K	153.5 ± 0.9
66.82 K	156.6 ± 0.9
68.05 K	160.1 ± 0.9
69.27 K	162.8 ± 0.9
70 K	164.4 ± 0.9
70.5 K	165.1 ± 0.9

Source: the NIST ThermoML archive (doi:10.1016/j.jct.2016.05.001)
